Test system: C57B1/6 male mice
Assay: Contextual fear conditioning (weak versus strong training), 4-day contextual memory scored as freezing, after intra-hippocampal infusion
Type: in vivo, mouse
Parameters: effect on memory induced by strong training: dose or concentration left out as unconfirmed
Details: tested 4 days after training; for freezing responses: ANI 62.5 μg/2 μl per hippocampus immediately after training
Experimental: Ten to twelve week old C57B1/6 male mice (Taconic Laboratory, N.Y.) were used. Mice were housed in groups of four in standard mouse cages and kept in a 12:12 light-dark cycle and constant temperature (22° C.) in a humidity and ventilation-controlled animal house. With the exception of surgery, training and testing times, the mice had ad lib access to food and water. Animals were acclimatized to animal house environment for a week before surgery. On a day of surgery, mice were anesthetized with 20 mg/kg Avertin and implanted with a 26-gauge guide double cannula aimed at the dorsal hippocampus using a stereotaxic apparatus (Korf Instruments, Calif.; coordinates: P=1 mm; 5 mm to a depth 1-1.2 mm; Franklin and Paxinos, The Mouse Brain In Stereotaxis Coordinates, Academic Press, San Diego, Calif. (1997)). After the end of surgery, animals were individually maintained in a cage with ad lib access to food and water. Seven days after recovery from surgery, animals were trained for contextual fear conditioning.
The basic fear conditioning procedures and equipment remained as described (Bourtchuladze, R. et al., Cell, 79:59-68 (1994); and Bourtchouladze et al., Learn Mem., 5(4-5):365-374 (1998)). On the training day, the mouse was placed in the conditioning chamber (Med Associates) for 2 minutes before the onset of unconditioned stimulus (US) of 0.5 mA, two seconds shock. For weak training, US was repeated two times with a one minute inter-trial interval between shocks. For strong training, 5 USs were given. Training was automated and performed by computerized software package (Med Associates).
Thirty seconds after the end of the last trial, the mouse was returned to its home cage. The conditioning chamber was cleaned with 75% ethanol and then with water. Contextual memory was tested four days after training by scoring freezing responses. Freezing was assessed with a sampling method. That is, 2 second observations were taken every 5 seconds (Bourtchuladze, R. et al., Cell, 79:59-68 (1994); Bourtchouladze et al., Learn Mem., 5(4-5):365-374 (1998); and Frankland, P. W. et al., Behav. Neurosci., 112:863-874 (1998)). A mouse was detminined to be freezing when it adopted a motionless posture, refraining from all but respiratory movements.
For each training and drug-injecting procedure, an experimentally nave group of animals was used. The observations were made by an experimenter unaware of the experimental treatment of the mice. In each experiment, both training and testing were videotaped. Experiments were analyzed with an analysis of variance (ANOVA) and t-tests.
Anisomycin (ANI) (Sigma) was dissolved in 0.9% saline, and the pH was adjusted with 1 N HCl to 7.4. Control animals received injections of saline. Mice were injected in the hippocampus (62.5 μg/2 μl per hippocampus) immediately after training. Infusions were made through the guide cannula using a 33-gauge injection needle. The needle was connected via a polyethylene tube to a microsyringe fixed in the pump 11 (Harvard Instruments). The entire infusion procedure took 2 minutes and animals were freely moving during this time in the home cage. Experiments were replicated 2 times and for each training procedure, an experimentally nave group of animals was used (n=47 total).
Mouse antisense oligodeoxynucleotides (ODNs) directed against CREB mRNA (5′-T-s-g-s-g-s-T-C-A-T-T-g-T-T-A-C-C-g-s-g-s-T-s-g-3′) (SEQ ID NO:1) was used to disrupt hippocampal CREB protein levels. Control groups received infusions of ODN of the same base composition but in randomized order (scrambled CREB: 5′-g-s-T-s-C-s-T-g-T-A-g-T-C-g-A-T-C-T-A-T-s-g-s-g-s-T3′) (SEQ ID NO:2). ODNs were administered into the hippocampus (2 nmol/2 μl per hippocampus) as described above for ANI-infusion. CREB ODNs were infused 20 hours before training. Experiments were replicated 3 times and for each training procedure, an experimentally nave group of animals was used (n=54 total). […]

SMILES | freezing responses (strong training (5 USs)) [%] | freezing responses (weak training (2 USs)) [%] | effect on memory induced by weak training (ANI 62.5 mg/2 μl per hippocampus immediately after training, weak training, vs vehicle) | effect on memory induced by strong training (ANI per hippocampus immediately after training, strong training, vs vehicle) | effect on memory induced by weak training (Rolipram 0.03 ng into hippocampus, weak training (2 trials)) | effect on memory induced by weak training (Rolipram 3 ng into hippocampus, weak training (2 trials)) | effect on memory induced by weak training (Rolipram 30 ng/1 μl per hippocampus immediately after training, 2 trials, vs vehicle) | effect on maximal memory levels produced by strong training (Rolipram 30 ng/1 μl per hippocampus immediately after training, 5 trials, vs vehicle)
COc1ccc(C[C@H]2NC[C@H](O)[C@H]2OC(C)=O)cc1 [ANI, Anisomycin] | 28.42±4.9 | 17.1±4.3 | significantly impaired memory | significantly impaired memory |  |  |  | 
COc1ccc(C2CNC(=O)C2)cc1OC1CCCC1 (centres unmarked) [Rolipram] |  |  |  |  | had no memory enhancing effect | produced memory enhancing effect | significantly enhanced the amount of memory | had no effect
